# Measurements taken from PubChem BioAssay AID1963861 (Molecular Pharmacology Branch, DTP, NCI, 2024).
# pIC50: −log10 of the molar value.
# Test system: 885724-159-R-J1-PDC KRAS PDC multicell spheroid viability
# Assay: Anticancer human tumor 885724-159-R-J1-PDC patient-derived pancreatic adenocarcinoma cell line growth inhibition [KRAS2]
# Settings: for pIC50: curve of first compound; for viability, T/C: stronger effect = lower value
# Procedure, shortened: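 Combination screen of spheroid viability in tumor-cell co-cultures with endothelial (HUVEC) and mesenchymal stem cell stroma. Each agent was tested in half-log dilutions, topping at clinical Cmax or at 10 microM without a known Cmax.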
# [1] = second compound 0.1 µM, first compound 0.0001 µM
# [2] = second compound 0.1 µM, first compound 0.000316 µM
# [3] = second compound 0.1 µM, first compound 0.001 µM
# [4] = second compound 0.1 µM, first compound 0.00316 µM
# [5] = second compound 0.1 µM, first compound 0.01 µM
# [6] = second compound 0.1 µM, first compound 0.0316 µM
# [7] = second compound 0.316 µM, first compound 0.0001 µM
# [8] = second compound 0.316 µM, first compound 0.000316 µM
# [9] = second compound 0.316 µM, first compound 0.001 µM
# [10] = second compound 0.316 µM, first compound 0.00316 µM
# [11] = second compound 0.316 µM, first compound 0.01 µM
# [12] = second compound 0.316 µM, first compound 0.0316 µM
# [13] = second compound 1 µM, first compound 0.0001 µM
# [14] = second compound 1 µM, first compound 0.000316 µM
# [15] = second compound 1 µM, first compound 0.001 µM
# [16] = second compound 1 µM, first compound 0.00316 µM
# [17] = second compound 1 µM, first compound 0.01 µM
# [18] = second compound 1 µM, first compound 0.0316 µM
# [19] = second compound 3.16 µM, first compound 0.0001 µM
# [20] = second compound 3.16 µM, first compound 0.000316 µM
# [21] = second compound 3.16 µM, first compound 0.001 µM
# [22] = second compound 3.16 µM, first compound 0.00316 µM
# [23] = second compound 3.16 µM, first compound 0.01 µM
# [24] = second compound 3.16 µM, first compound 0.0316 µM
# [25] = second compound 0.1 µM, first compound 0.1 µM
# [26] = second compound 0.316 µM, first compound 0.1 µM
# [27] = second compound 1 µM, first compound 0.1 µM
# [28] = second compound 3.16 µM, first compound 0.1 µM
# [29] = second compound 10 µM, first compound 0.000316 µM
# [30] = second compound 10 µM, first compound 0.001 µM
# [31] = second compound 10 µM, first compound 0.00316 µM
# [32] = second compound 10 µM, first compound 0.01 µM
# [33] = second compound 10 µM, first compound 0.0316 µM
# [34] = second compound 10 µM, first compound 0.1 µM
# [35] = second compound 0.1 µM, first compound 0.316 µM
# [36] = second compound 0.1 µM, first compound 1 µM
# [37] = second compound 0.1 µM, first compound 3.16 µM
# [38] = second compound 0.1 µM, first compound 10 µM
# [39] = second compound 0.316 µM, first compound 0.316 µM
# [40] = second compound 0.316 µM, first compound 1 µM
# [41] = second compound 0.316 µM, first compound 3.16 µM
# [42] = second compound 0.316 µM, first compound 10 µM
# [43] = second compound 1 µM, first compound 0.316 µM
# [44] = second compound 1 µM, first compound 1 µM
# [45] = second compound 1 µM, first compound 3.16 µM
# [46] = second compound 1 µM, first compound 10 µM
# [47] = second compound 3.16 µM, first compound 0.316 µM
# [48] = second compound 3.16 µM, first compound 1 µM
# [49] = second compound 3.16 µM, first compound 3.16 µM
# [50] = second compound 3.16 µM, first compound 10 µM
# [51] = second compound 10 µM, first compound 0.316 µM
# [52] = second compound 10 µM, first compound 1 µM
# [53] = second compound 10 µM, first compound 3.16 µM
# [54] = second compound 10 µM, first compound 10 µM
# 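Also: spheroids exposed to agents for 7 days before readout.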
smiles,measurement,setting,value
CC(=O)Nc1cccc(-n2c(=O)n(C3CC3)c(=O)c3c(Nc4ccc(I)cc4F)n(C)c(=O)c(C)c32)c1 + C=CC(=O)N1CCN(c2nc(OCC3CCCN3C)nc3c2CCN(c2cccc4cccc(C)c24)C3)CC1CC#N,pIC50,second compound 0.0316 µM,8.88
same,pIC50,second compound 0.1 µM,8.83
same,pIC50,second compound 0.316 µM,9.03
same,pIC50,second compound 1 µM,9.20
same,pIC50,second compound 3.16 µM,> 10.00
same,"viability, T/C","second compound 0.0316 µM, first compound 0.0001 µM",107%
same,"viability, T/C","second compound 0.0316 µM, first compound 0.000316 µM",78.7%
same,"viability, T/C","second compound 0.0316 µM, first compound 0.001 µM",51.3%
same,"viability, T/C","second compound 0.0316 µM, first compound 0.00316 µM",38.5%
same,"viability, T/C","second compound 0.0316 µM, first compound 0.01 µM",31%
same,"viability, T/C","second compound 0.0316 µM, first compound 0.0316 µM",20.8%
same,"viability, T/C",[1],92.3%
same,"viability, T/C",[2],84%
same,"viability, T/C",[3],54.2%
same,"viability, T/C",[4],37.3%
same,"viability, T/C",[5],28.9%
same,"viability, T/C",[6],20.4%
same,"viability, T/C",[7],92.6%
same,"viability, T/C",[8],74.8%
same,"viability, T/C",[9],45.1%
same,"viability, T/C",[10],34.8%
same,"viability, T/C",[11],28.7%
same,"viability, T/C",[12],20.4%
same,"viability, T/C",[13],85.1%
same,"viability, T/C",[14],64.3%
same,"viability, T/C",[15],39.5%
same,"viability, T/C",[16],27.7%
same,"viability, T/C",[17],21.8%
same,"viability, T/C",[18],18.6%
same,"viability, T/C",[19],45.4%
same,"viability, T/C",[20],37.8%
same,"viability, T/C",[21],18.8%
same,"viability, T/C",[22],18.8%
same,"viability, T/C",[23],5.46%
same,"viability, T/C",[24],8.49%
Cn1ncnc1[C@H]1c2n[nH]c(=O)c3cc(F)cc(c23)N[C@@H]1c1ccc(F)cc1 + COc1cc2nc(C)nc(NC(C)c3cc(N)cc(C(F)(F)F)c3)c2cc1OC1CCOC1,pIC50,second compound 0.1 µM,< 7.00
same,pIC50,second compound 0.316 µM,< 7.00
same,pIC50,second compound 1 µM,< 7.00
same,pIC50,second compound 3.16 µM,< 7.00
same,pIC50,second compound 10 µM,> 9.50
same,"viability, T/C",[2],104%
same,"viability, T/C",[3],101%
same,"viability, T/C",[4],102%
same,"viability, T/C",[5],96.2%
same,"viability, T/C",[6],92.1%
same,"viability, T/C",[25],93.4%
same,"viability, T/C",[8],96.3%
same,"viability, T/C",[9],102%
same,"viability, T/C",[10],98.6%
same,"viability, T/C",[11],98.3%
same,"viability, T/C",[12],94.5%
same,"viability, T/C",[26],91.3%
same,"viability, T/C",[14],98.2%
same,"viability, T/C",[15],96.5%
same,"viability, T/C",[16],92.4%
same,"viability, T/C",[17],94.3%
same,"viability, T/C",[18],102%
same,"viability, T/C",[27],85.5%
same,"viability, T/C",[20],91.8%
same,"viability, T/C",[21],97.9%
same,"viability, T/C",[22],90.5%
same,"viability, T/C",[23],88.5%
same,"viability, T/C",[24],94.3%
same,"viability, T/C",[28],83.1%
same,"viability, T/C",[29],42.1%
same,"viability, T/C",[30],44.8%
same,"viability, T/C",[31],20.7%
same,"viability, T/C",[32],48.3%
same,"viability, T/C",[33],34.2%
same,"viability, T/C",[34],30.4%
COc1cc(Nc2ncc3c(n2)-c2ccc(Cl)cc2C(c2c(F)cccc2OC)=NC3)ccc1C(=O)O + C=CC(=O)N1CCN(c2nc(=O)n(-c3c(C)ccnc3C(C)C)c3nc(-c4c(O)cccc4F)c(F)cc23)C(C)C1,pIC50,second compound 0.1 µM,< 5.00
same,pIC50,second compound 0.316 µM,< 5.00
same,pIC50,second compound 1 µM,< 5.00
same,pIC50,second compound 3.16 µM,< 5.00
same,pIC50,second compound 10 µM,< 5.00
same,"viability, T/C",[6],99.7%
same,"viability, T/C",[25],100%
same,"viability, T/C",[35],95.9%
same,"viability, T/C",[36],92.7%
same,"viability, T/C",[37],100%
same,"viability, T/C",[38],107%
same,"viability, T/C",[12],94.5%
same,"viability, T/C",[26],92.1%
same,"viability, T/C",[39],92.2%
same,"viability, T/C",[40],96.8%
same,"viability, T/C",[41],98.7%
same,"viability, T/C",[42],106%
same,"viability, T/C",[18],97.8%
same,"viability, T/C",[27],93.5%
same,"viability, T/C",[43],92.2%
same,"viability, T/C",[44],93.9%
same,"viability, T/C",[45],85.6%
same,"viability, T/C",[46],99.7%
same,"viability, T/C",[24],80.9%
same,"viability, T/C",[28],85.5%
same,"viability, T/C",[47],86.1%
same,"viability, T/C",[48],90.6%
same,"viability, T/C",[49],90.9%
same,"viability, T/C",[50],87.4%
same,"viability, T/C",[33],65.4%
same,"viability, T/C",[34],67.4%
same,"viability, T/C",[51],63.6%
same,"viability, T/C",[52],58.2%
same,"viability, T/C",[53],56.5%
same,"viability, T/C",[54],49.8%
CC1(C)CCC(CN2CCN(c3ccc(C(=O)NS(=O)(=O)c4ccc(NCC5CCOCC5)c([N+](=O)[O-])c4)c(Oc4cnc5[nH]ccc5c4)c3)CC2)=C(c2ccc(Cl)cc2)C1 + COc1cc2nc(C)nc(NC(C)c3cc(N)cc(C(F)(F)F)c3)c2cc1OC1CCOC1,pIC50,second compound 0.1 µM,5.14
same,pIC50,second compound 0.316 µM,5.16
same,pIC50,second compound 1 µM,5.30
same,pIC50,second compound 3.16 µM,5.37
same,pIC50,second compound 10 µM,> 7.50
same,"viability, T/C",[6],93.7%
same,"viability, T/C",[25],91.3%
same,"viability, T/C",[35],91.8%
same,"viability, T/C",[36],88.3%
same,"viability, T/C",[37],82.2%
same,"viability, T/C",[38],37.6%
same,"viability, T/C",[12],96.9%
same,"viability, T/C",[26],88.4%
same,"viability, T/C",[39],86%
same,"viability, T/C",[40],92.7%
same,"viability, T/C",[41],79.5%
same,"viability, T/C",[42],35.7%
same,"viability, T/C",[18],91.2%
same,"viability, T/C",[27],88.3%
same,"viability, T/C",[43],81.9%
same,"viability, T/C",[44],83.1%
same,"viability, T/C",[45],64.1%
same,"viability, T/C",[46],28%
same,"viability, T/C",[24],84.4%
same,"viability, T/C",[28],82.8%
same,"viability, T/C",[47],84.4%
same,"viability, T/C",[48],71.7%
same,"viability, T/C",[49],59.7%
same,"viability, T/C",[50],26.4%
same,"viability, T/C",[33],31.2%
same,"viability, T/C",[34],35.5%
same,"viability, T/C",[51],23.4%
same,"viability, T/C",[52],27.7%
same,"viability, T/C",[53],26.2%
same,"viability, T/C",[54],8.47%
CC(=O)Nc1cccc(-n2c(=O)n(C3CC3)c(=O)c3c(Nc4ccc(I)cc4F)n(C)c(=O)c(C)c32)c1 + CNCc1ccccc1-c1csc(C(C)Nc2nc(C)nc3cc(OC)c(OC)cc23)c1,pIC50,second compound 0.1 µM,9.05
same,pIC50,second compound 0.316 µM,9.08
same,pIC50,second compound 1 µM,9.28
same,pIC50,second compound 3.16 µM,> 10.00
same,pIC50,second compound 10 µM,> 10.00
same,"viability, T/C",[1],90.3%
same,"viability, T/C",[2],71.2%
same,"viability, T/C",[3],43.9%
same,"viability, T/C",[4],34.7%
same,"viability, T/C",[5],24.7%
same,"viability, T/C",[6],16.2%
same,"viability, T/C",[7],90.4%
same,"viability, T/C",[8],70.2%
same,"viability, T/C",[9],43.9%
same,"viability, T/C",[10],30.3%
same,"viability, T/C",[11],20.5%
same,"viability, T/C",[12],12.9%
same,"viability, T/C",[13],90.8%
same,"viability, T/C",[14],63.7%
same,"viability, T/C",[15],30.5%
same,"viability, T/C",[16],20.6%
same,"viability, T/C",[17],6.76%
same,"viability, T/C",[18],1.59%
same,"viability, T/C",[19],1.26%
same,"viability, T/C",[20],0.83%
same,"viability, T/C",[21],0.53%
same,"viability, T/C",[22],0.68%
same,"viability, T/C",[23],0.79%
same,"viability, T/C",[24],1.69%
same,"viability, T/C","second compound 10 µM, first compound 0.0001 µM",0.21%
same,"viability, T/C",[29],0.24%
same,"viability, T/C",[30],0.25%
same,"viability, T/C",[31],0.37%
same,"viability, T/C",[32],0.34%
same,"viability, T/C",[33],0.69%
